Results reported in publication PMC3645702, “Protein Tyrosine Nitration and Thiol Oxidation by Peroxynitrite—Strategies to Prevent These Oxidative Modifications” (International Journal of Molecular Sciences, 2013).
pEC50: −log10 of the molar value.

Tests used:
[1] = target: T1, human prostacyclin synthase (PGIS), microsomal, partially purified (Homo sapiens, UniProt Q16647); assay: 3-nitrotyrosine formation, Western blot and HPLC after pronase; format: biochemical
T1 construct: gene PTGIS; overexpressed in Sf21 insect cells
T1 sequence (Q16647 1-500): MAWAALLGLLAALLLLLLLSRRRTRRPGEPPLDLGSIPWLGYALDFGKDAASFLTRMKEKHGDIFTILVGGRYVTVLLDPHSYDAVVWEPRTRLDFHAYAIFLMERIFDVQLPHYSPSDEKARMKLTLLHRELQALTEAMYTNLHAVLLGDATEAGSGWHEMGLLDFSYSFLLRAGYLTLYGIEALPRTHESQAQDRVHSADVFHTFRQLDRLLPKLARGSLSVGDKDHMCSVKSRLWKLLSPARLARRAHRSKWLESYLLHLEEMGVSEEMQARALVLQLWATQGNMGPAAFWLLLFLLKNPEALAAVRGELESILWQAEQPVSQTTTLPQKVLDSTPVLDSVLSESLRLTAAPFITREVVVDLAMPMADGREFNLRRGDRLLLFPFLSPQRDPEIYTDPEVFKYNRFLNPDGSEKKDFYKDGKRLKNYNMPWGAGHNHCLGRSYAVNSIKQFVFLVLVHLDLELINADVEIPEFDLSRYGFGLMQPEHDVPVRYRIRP
Text: 3-nitrotyrosine formation, Western blot and HPLC after pronase on human prostacyclin synthase (PGIS), microsomal, partially purified | peroxynitrite-dependent nitration of an over-expressed and partially purified human prostacyclin synthase

[2] = target: T2, alcohol dehydrogenase (ADH) (Saccharomyces cerevisiae, UniProt P00330); assay: NADH formation at […] nm; format: biochemical
T2 construct: gene ADH1
T2 sequence (P00330 2-348): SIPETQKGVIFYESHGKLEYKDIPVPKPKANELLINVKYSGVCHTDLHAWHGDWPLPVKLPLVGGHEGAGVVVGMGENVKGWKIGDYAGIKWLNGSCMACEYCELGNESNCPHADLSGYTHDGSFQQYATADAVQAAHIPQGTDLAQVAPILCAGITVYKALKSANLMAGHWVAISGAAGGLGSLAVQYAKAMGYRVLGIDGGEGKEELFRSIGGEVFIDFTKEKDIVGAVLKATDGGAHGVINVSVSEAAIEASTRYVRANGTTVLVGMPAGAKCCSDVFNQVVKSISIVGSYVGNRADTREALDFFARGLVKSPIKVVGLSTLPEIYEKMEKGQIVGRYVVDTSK

Row | Structure (SMILES) | pEC50 [1] | inhibition at 50 µM [2]
1 | O=NOO [peroxynitrite] | 5.30 | –
2 | S=c1cc[nH]c(=S)[nH]1 [2,6-Dithiopyrimidine] | – | 20%
3 | S=c1[nH]c(=S)c2[nH]cnc2[nH]1 [2,6-Dithiopurine] | – | 20%
